Source: US5043450A, “8-alkoxyquinolonecarboxylic acid and salts thereof” (priority 1986, dated 1991)
In brackets after ≈: the same amount, converted by molar mass. Like-named read-outs stand apart in the source and are kept apart here.

Tests used:
Format in all cases: cell-based
E. coli ATCC 10536 = assay: Antibacterial spectra, MIC; settings: Escherichia coli, ATCC10536
[1] = test system: Salmonella enteritidis IID 604; assay: Antibacterial spectra, MIC; settings: Salmonella enterica
B. distasonis 8503 = assay: Antibacterial spectra, MIC; settings: Parabacteroides distasonis
[2] = test system: Yersinia enterocolitica IID 981; assay: Antibacterial spectra, MIC; settings: IID981
P. aeruginosa IFO 12689 = assay: Antibacterial spectra, MIC; settings: Pseudomonas aeruginosa, IFO12689; 10^6 cells/ml; Gram -; read-out: MIC
Shigella sonnei IID 969 = assay: Antibacterial spectra, MIC; settings: IID969, 10^6 cells/ml, Gram -
Experimental: (§1) The antibacterial test was carried out according to the method designated by Japan Society of Chemotherapy.

[3] = test system: Streptococcus pyogenes (S-8); assay: Antibacterial spectra, MIC; settings: 10^6 cells/ml, Gram +
Experimental: as §1

E. coli ML 4707 = assay: Antibacterial spectra, MIC; settings: Escherichia coli, ML4707; 10^6 cells/ml; Gram -
Experimental: as §1

E. faecalis IID 682 = assay: Antibacterial spectra, MIC; settings: Enterococcus faecalis, IID682; 10^6 cells/ml; Gram +
Experimental: as §1

[4] = test system: Proteus vulgaris IFO 3167; assay: Antibacterial spectra, MIC; settings: IFO3167, 10^6 cells/ml, Gram -
Experimental: as §1

[5] = test system: Eubacterium lentum GAI 5242; assay: Antibacterial spectra, MIC; settings: Eggerthella lenta, GAI5242
[6] = test system: Escherichia coli NIHJ JC-2; assay: Antibacterial spectra, MIC; settings: NIHJJC2
[7] = test system: Propionibacterium acens 11828; assay: Antibacterial spectra, MIC; settings: 10^6 cells/ml, Gram +, read-out: MIC
F. varium KYA 8501 = assay: Antibacterial spectra, MIC; settings: Fusobacterium varium, KYA8501; 10^6 cells/ml; Gram -; read-out: MIC
P. maltophilia GIFU 2491 = assay: Antibacterial spectra, MIC; settings: Stenotrophomonas maltophilia, GIFU2491
B. fragilis 0558 = assay: Antibacterial spectra, MIC; settings: Bacteroides fragilis
[8] = test system: Peptostreptococcus anaerobius KYA 27337; assay: Antibacterial spectra, MIC
K. pneumoniae 1-220S = assay: Antibacterial spectra, MIC; settings: Klebsiella pneumoniae, 1220S
F. necrophorum S-45 = assay: Antibacterial spectra, MIC; settings: Fusobacterium necrophorum, S45
P. cepacia GIFU 518 = assay: Antibacterial spectra, MIC; settings: Burkholderia cepacia, GIFU518
[9] = test system: Morganella morganii IID 602; assay: Antibacterial spectra, MIC; settings: IID602
S. aureus Smith = assay: Antibacterial spectra, MIC; settings: Staphylococcus aureus
B. vulgatus KYA 29327 = assay: Antibacterial spectra, MIC; settings: Phocaeicola vulgatus, KYA29327
Pst. micros UPI 5464-1 = assay: Antibacterial spectra, MIC; settings: Parvimonas micra, UPI54641
[10] = test system: Citrobacter freundii IID 976; assay: Antibacterial spectra, MIC
[11] = test system: B. thetaiotaomicron (0661); assay: Antibacterial spectra, MIC; settings: Bacteroides thetaiotaomicron
[12] = test system: Staphylococcus aureus 209 P; assay: Antibacterial spectra, MIC
[13] = test system: Fusobacterium mortiferum 4249; assay: Antibacterial spectra, MIC
[14] = test system: Klebsiella pneumoniae KY(GN)6445; assay: Antibacterial spectra, MIC
C. perfringens KYA 13123 = assay: microbe, parasite or virus in culture; settings: Clostridium perfringens, KYA13123
P. aeruginosa IID 1210 = assay: Antibacterial spectra, MIC; settings: Pseudomonas aeruginosa, IID1210; 10^6 cells/ml; Gram -; read-out: MIC
[15] = test system: Serratia marcescens IID 618; assay: Antibacterial spectra, MIC; settings: IID618
C. ramosum = assay: Antibacterial spectra, MIC; settings: Thomasclavelia ramosa
[16] = test system: Enterobacter cloacae IID 977; assay: Antibacterial spectra, MIC; settings: IID977
[17] = test system: Pseudomonas aeruginosa V-1; assay: Antibacterial spectra, MIC; settings: V1
S. pyogenes IID 692 = assay: Antibacterial spectra, MIC; settings: Streptococcus pyogenes, IID692
[18] = test system: Alcaligenes faecalis 0114002; assay: Antibacterial spectra, MIC
[19] = test system: Veillonella parvula KYA 10790; assay: Antibacterial spectra, MIC; settings: KYA10790
[20] = test system: Peptococcus magnus KY 017; assay: Antibacterial spectra, MIC; settings: Finegoldia magna, KY017
[21] = test system: Bacteroides fragilis GM 7000; assay: Antibacterial spectra, MIC; settings: GM7000
B. fragilis 25285 = assay: Antibacterial spectra, MIC; settings: Bacteroides fragilis
P. mirabilis IID 994 = assay: Antibacterial spectra, MIC; settings: Proteus mirabilis, IID994
[22] = test system: S. aureus IID 670 (Terajima); assay: Antibacterial spectra, MIC; settings: Staphylococcus aureus, IID670
S. pneumoniae IID 552 = assay: Antibacterial spectra, MIC; settings: Streptococcus pneumoniae, IID552
Bacilus subtilis PCI 219 = assay: Antibacterial spectra, MIC; settings: Bacillus subtilis, PCI219
[23] = test system: Acinetobacter anitratus IID 876; assay: Antibacterial spectra, MIC; settings: Acinetobacter calcoaceticus, IID876
S. epidermidis IID 866 = assay: Antibacterial spectra, MIC; settings: Staphylococcus epidermidis, IID866
[24] = 10^6 cells/ml, Gram -, read-out: MIC
[25] = 10^6 cells/ml, Gram +, read-out: MIC

COc1c(N2CCNCC2)c(F)c(N)c2c(=O)c(C(=O)O)cn(C3CC3)c12 [Exp. 10, 5-amino-1-cyclopropyl-6-fluoro-1,4-dihydro-8-methoxy-4-oxo-7-(1-piperazinyl)-3-quinolinecarboxylic acid]
MIC (E. coli ATCC 10536): 0.05 µg/mL (≈ 0.133 µM) | MIC [1]: 0.2 µg/mL (≈ 0.531 µM) | MIC (B. distasonis 8503; [24]): 6.25 µg/mL (≈ 16.6 µM) | MIC [2]: 0.2 µg/mL (≈ 0.531 µM) | MIC (P. aeruginosa IFO 12689): 1.56 µg/mL (≈ 4.14 µM) | MIC (Shigella sonnei IID 969): 0.025 µg/mL (≈ 0.0664 µM) | MIC [3]: 0.39 µg/mL | MIC (E. coli ML 4707): 0.05 µg/mL (≈ 0.133 µM) | MIC (E. faecalis IID 682): 0.39 µg/mL | MIC [4]: 0.1 µg/mL (≈ 0.266 µM) | MIC [5]: 0.78 µg/mL (≈ 2.07 µM) | MIC [6]: 0.025 µg/mL (≈ 0.0664 µM) | MIC [7]: 12.5 µg/mL (≈ 33.2 µM) | MIC (F. varium KYA 8501): 50 µg/mL (≈ 133 µM) | MIC (P. maltophilia GIFU 2491): 0.2 µg/mL (≈ 0.531 µM) | MIC (B. fragilis 0558): 3.13 µg/mL (≈ 8.32 µM) | MIC ([8]; KYA27337, 10^6 cells/ml, Gram +, read-out: MIC): 1.56 µg/mL (≈ 4.14 µM) | MIC (K. pneumoniae 1-220S): 0.2 µg/mL (≈ 0.531 µM) | MIC (F. necrophorum S-45; [24]): 1.56 µg/mL (≈ 4.14 µM) | MIC (P. cepacia GIFU 518; [24]): 1.56 µg/mL (≈ 4.14 µM) | MIC [9]: 0.2 µg/mL (≈ 0.531 µM) | MIC (S. aureus Smith): 0.1 µg/mL (≈ 0.266 µM) | MIC (B. vulgatus KYA 29327): 0.39 µg/mL (≈ 1.04 µM) | MIC (Pst. micros UPI 5464-1): 0.39 µg/mL (≈ 1.04 µM) | MIC ([10]; IID976): 0.05 µg/mL (≈ 0.133 µM) | MIC [11, 24]: 6.25 µg/mL (≈ 16.6 µM) | MIC [12]: 0.05 µg/mL (≈ 0.133 µM) | MIC [13, 24]: 1.56 µg/mL (≈ 4.14 µM) | MIC [14]: 0.05 µg/mL (≈ 0.133 µM) | MIC (C. perfringens KYA 13123): 3.13 µg/mL (≈ 8.32 µM) | MIC (P. aeruginosa IID 1210): 1.56 µg/mL (≈ 4.14 µM) | MIC [15]: 0.2 µg/mL (≈ 0.531 µM) | MIC (C. ramosum; [25]): 1.56 µg/mL (≈ 4.14 µM) | MIC [16]: 0.2 µg/mL (≈ 0.531 µM) | MIC [17]: 0.39 µg/mL (≈ 1.04 µM) | MIC (S. pyogenes IID 692): > 0.78 µg/mL | MIC [18]: 0.78 µg/mL (≈ 2.07 µM) | MIC [19]: 0.39 µg/mL (≈ 1.04 µM) | MIC [20, 25]: 1.56 µg/mL (≈ 4.14 µM) | MIC [21]: 3.13 µg/mL (≈ 8.32 µM) | MIC (B. fragilis 25285): 3.13 µg/mL (≈ 8.32 µM) | MIC (P. mirabilis IID 994): 0.2 µg/mL (≈ 0.531 µM) | MIC [22]: 0.1 µg/mL (≈ 0.266 µM) | MIC (S. pneumoniae IID 552): > 0.78 µg/mL | MIC (Bacilus subtilis PCI 219): 0.025 µg/mL (≈ 0.0664 µM) | MIC [23]: 0.1 µg/mL (≈ 0.266 µM)

CCNCC1CCN(c2c(F)cc3c(=O)c(C(=O)O)cn(C4CC4)c3c2OC)C1 (stereo not drawn) [Exp. 9, 1-cyclopropyl-7-(3-ethylaminomethyl-1-pyrrolidinyl)-6-fluoro-1,4-dihydro-8-methoxy-4-oxo-3-quinolinecarboxylic acid]
MIC (E. coli ATCC 10536): 0.025 µg/mL (≈ 0.062 µM) | MIC [1]: 0.05 µg/mL (≈ 0.124 µM) | MIC (B. distasonis 8503): 0.78 µg/mL (≈ 1.93 µM) | MIC [2]: 0.1 µg/mL (≈ 0.248 µM) | MIC (P. aeruginosa IFO 12689): 1.56 µg/mL (≈ 3.87 µM) | MIC (Shigella sonnei IID 969): 0.025 µg/mL (≈ 0.062 µM) | MIC [3]: 0.025 µg/mL | MIC (E. coli ML 4707): 0.025 µg/mL (≈ 0.062 µM) | MIC (E. faecalis IID 682): 0.05 µg/mL | MIC [4]: 0.025 µg/mL (≈ 0.062 µM) | MIC [5]: 0.1 µg/mL (≈ 0.248 µM) | MIC [6]: 0.0063 µg/mL (≈ 0.0156 µM) | MIC [7]: 1.56 µg/mL (≈ 3.87 µM) | MIC (F. varium KYA 8501): 1.56 µg/mL (≈ 3.87 µM) | MIC (P. maltophilia GIFU 2491): 0.2 µg/mL (≈ 0.496 µM) | MIC (B. fragilis 0558): 0.1 µg/mL (≈ 0.248 µM) | MIC ([8]; KYA27337): ≤ 0.05 µg/mL | MIC (K. pneumoniae 1-220S): 0.1 µg/mL (≈ 0.248 µM) | MIC (F. necrophorum S-45): 0.2 µg/mL (≈ 0.496 µM) | MIC (P. cepacia GIFU 518): 0.78 µg/mL (≈ 1.93 µM) | MIC [9]: 0.2 µg/mL (≈ 0.496 µM) | MIC (S. aureus Smith): 0.0125 µg/mL (≈ 0.031 µM) | MIC (B. vulgatus KYA 29327): 0.39 µg/mL (≈ 0.967 µM) | MIC (Pst. micros UPI 5464-1): 0.39 µg/mL (≈ 0.967 µM) | MIC ([10]; IID976, 10^6 cells/ml, Gram -, read-out: MIC): 0.055 µg/mL (≈ 0.136 µM) | MIC [11]: 0.78 µg/mL (≈ 1.93 µM) | MIC [12]: 0.0125 µg/mL (≈ 0.031 µM) | MIC [13]: 0.2 µg/mL (≈ 0.496 µM) | MIC [14]: 0.05 µg/mL (≈ 0.124 µM) | MIC (C. perfringens KYA 13123): ≤ 0.05 µg/mL | MIC (P. aeruginosa IID 1210): 6.25 µg/mL (≈ 15.5 µM) | MIC (S. epidermidis IID 866): 0.025 µg/mL (≈ 0.062 µM) | MIC [15]: 0.1 µg/mL (≈ 0.248 µM) | MIC (C. ramosum): 0.2 µg/mL (≈ 0.496 µM) | MIC [16]: 0.1 µg/mL (≈ 0.248 µM) | MIC [17]: 0.39 µg/mL (≈ 0.967 µM) | MIC (S. pyogenes IID 692): 0.05 µg/mL (≈ 0.124 µM) | MIC [18]: 0.78 µg/mL (≈ 1.93 µM) | MIC [19]: 0.39 µg/mL (≈ 0.967 µM) | MIC [20]: ≤ 0.05 µg/mL | MIC [21]: 0.1 µg/mL (≈ 0.248 µM) | MIC (B. fragilis 25285): 0.1 µg/mL (≈ 0.248 µM) | MIC (P. mirabilis IID 994): 0.025 µg/mL (≈ 0.062 µM) | MIC [22]: 0.0125 µg/mL (≈ 0.031 µM) | MIC (S. pneumoniae IID 552): 0.025 µg/mL (≈ 0.062 µM) | MIC (Bacilus subtilis PCI 219): 0.0063 µg/mL (≈ 0.0156 µM) | MIC [23]: 0.05 µg/mL (≈ 0.124 µM)
